Laboratory results from patent US20260042764A1, “COMPOSITIONS AND METHODS FOR INHIBITION OF KRAS” (TheRas, Inc., priority 2022, published 2026).
Where two headings read alike, the source gives them in different places.

Legend:
[1] = system: H358 cells (KRAS G12C); assay: Cell-based pERK HTRF assay in H358 cells (Biological Example 5)
Procedure: (§1) Biological Example 5: Cell-based PERK HTRF assay in AsPC-1, SW1900, HPAC, Capan-2, RKN, H358, HCT116, KP-2, H1573, A549, MKN1, and HT1080 cells
(§2) The inhibition of ERK phosphorylation, as measured using the HTRF Advanced Phospho-ERK 1/2 (Thr202/Tyr204) Detection Assay kit (Perkin Elmer), was used to determine the effectiveness of test compounds in disrupting KRAS-driven protein/effector signaling in cells.
(§3) On day 1, cells were seeded into 96-well plates at 2.5×10^4 cells/well in 100 μL of complete growth media supplemented with 10% fetal bovine serum (FBS) and incubated at 37° C., in the presence of 5% CO2.
(§4) On day 2, cells were treated with compounds diluted in DMSO at 0.25% final DMSO concentration. Compounds were dosed in a 9-point concentration curve with three-fold dilution between concentrations. Cells were incubated in the presence of compound for two hours at 37° C. Following this treatment period, cells were harvested by aspirating the media, adding 40 μL of kit-supplied 1x lysis buffer per well, and shaking for 30 minutes at 250 rpm at room temperature.
(§5) Following cell lysis, samples were homogenized by pipetting up and down twenty times and 16 μL of cell lysate per well was transferred from the 96-well cell culture plate to two wells of a 384-well detection plate. A complete detection buffer was prepared by diluting D2 and Eu Cryptate antibodies 1:20 in kit-provided detection solution, 4 μL of complete detection buffer was then added to each well with lysate. Plates were incubated with gentle rocking for 24 hours at 4° C.
(§6) Following this incubation period, plates were centrifuged at 500×g for one minute and analyzed on a CLARIOstar plate reader. Data was imported into Microsoft Excel and the signal from the 665 nm channel was divided by the signal from the 620 nm channel. % pERK was calculated as: […]
(§7) Data was imported to the Prism software package (Graphpad) and EC50 values were calculated using the log (inhibitor) vs, response—variable slopc (Four parameters) model.

[2] = system: A549 cells (KRAS G12S); assay: Cell-based pERK HTRF assay in A549 cells (Biological Example 5); conditions: Homo sapiens
Procedure: as §1, §2, §3, §4, §5, §6, §7

[3] = system: HT1080 cells (NRAS); assay: 3D Cell viability assay in HT1080 cells (Biological Example 6); assay type: cell-based; conditions: Homo sapiens, HT-1080; HT1080 (NRAS) spheroids, 72 hours
Procedure: (§8) Biological Example 6: 3D Cell viability assay in AsPC-1, SW1900, HPAC, Capan-2, RKN, H358, HCT116, KP-2, H1573, A549, MKN1, and HT1080 cells
(§9) The inhibition of cellular viability as a result of test compound treatment in a spheroid assay was measured using the CellTiter-Glow 3D Cell Viability Assay (Promega).
(§10) On Day 1, 1000 cells per well were seeded in 150 μL of complete growth media supplemented with 10% fetal bovine serum (FBS) and incubated at 37° C., in the presence of 5% CO2 in 96-well ultra-low attachment microplates (Corning) for 48 hours undisturbed to allow spheroids to form.
(§11) Following spheroid formation, cells were treated with compounds diluted in DMSO at 0.25% final DMSO concentration. Compounds were dosed in a 9-point concentration curve with three-fold dilution between concentrations. Cells were incubated in the presence of compound for 72 hours at 37° C., in the presence of 5% CO2.
(§12) Following this incubation period, the kit-provided CTG reagent was allowed to equilibrate for 30 minutes at room temperature, 150 μL of equilibrated CTG reagent was added to each well, and the plate was sealed before shaking at 250 rpm for 10 minutes at room temperature to lyse the cells, 150 μL of lysate per well was transferred to a 96-well plate and luminescence was read on a CLARIOstar plate reader.
(§13) Data was imported into the Prism software package (Graphpad) and EC50 values were calculated using the log (inhibitor) vs, response—variable slope (Four parameters) model.

[4] = system: RKN cells (KRAS G12V); assay: Cell-based pERK HTRF assay in RKN cells (Biological Example 5)
Procedure: as §1, §2, §3, §4, §5, §6, §7

[5] = system: H1573 cells (KRAS G12A); assay: 3D Cell viability assay in H1573 cells (Biological Example 6); assay type: cell-based; conditions: Homo sapiens, NCI-H1573; H1573 (KRAS G12A) spheroids, 72 hours
Procedure: as §8, §9, §10, §11, §12, §13

[6] = system: HPAC cells (KRAS G12D); assay: Cell-based pERK HTRF assay in HPAC cells (Biological Example 5)
Procedure: as §1, §2, §3, §4, §5, §6, §7

[7] = system: RKN cells (KRAS G12V); assay: 3D Cell viability assay in RKN cells (Biological Example 6); assay type: cell-based; conditions: RKN (KRAS G12V) spheroids, 72 hours
Procedure: as §8, §9, §10, §11, §12, §13

[8] = system: A549 cells (KRAS G12S); assay: 3D Cell viability assay in A549 cells (Biological Example 6); assay type: cell-based; conditions: Homo sapiens; A549 (KRAS G12S) spheroids, 72 hours
Procedure: as §8, §9, §10, §11, §12, §13

[9] = system: Capan-2 cells (KRAS G12V); assay: 3D Cell viability assay in Capan-2 cells (Biological Example 6); assay type: cell-based; conditions: Capan-2 (KRAS G12V) spheroids, 72 hours
Procedure: as §8, §9, §10, §11, §12, §13

[10] = system: H1573 cells (KRAS G12A); assay: Cell-based pERK HTRF assay in H1573 cells (Biological Example 5); conditions: Homo sapiens, NCI-H1573
Procedure: as §1, §2, §3, §4, §5, §6, §7

[11] = system: HCT116 cells (KRAS G13D); assay: Cell-based pERK HTRF assay in HCT116 cells (Biological Example 5)
Procedure: as §1, §2, §3, §4, §5, §6, §7

[12] = system: HPAC cells (KRAS G12D); assay: 3D Cell viability assay in HPAC cells (Biological Example 6); assay type: cell-based; conditions: HPAC (KRAS G12D) spheroids
Procedure: as §8, §9, §10, §11, §12, §13

[13] = system: SW1900 cells (KRAS G12D); assay: 3D Cell viability assay in SW1900 cells (Biological Example 6); assay type: cell-based; conditions: SW1990 (text: SW1900, KRAS G12D) spheroids, 72 hours
Procedure: as §8, §9, §10, §11, §12, §13

[14] = system: HT1080 cells (NRAS); assay: Cell-based pERK HTRF assay in HT1080 cells (Biological Example 5); conditions: Homo sapiens, HT-1080
Procedure: as §1, §2, §3, §4, §5, §6, §7

[15] = system: AsPC-1 cells (KRAS G12D); assay: Cell-based pERK HTRF assay in AsPC-1 cells (Biological Example 5); conditions: Homo sapiens, ASPC1, AsPC-1 (KRAS G12D) cells
Procedure: as §1, §2, §3, §4, §5, §6, §7

[16] = Homo sapiens, NCI-H358, H358 (KRAS G12C) cells

Measured: IC50

CCC(=O)N1CC[C@@H](N(C)c2nc(OC[C@@]34CCCN3C[C@H](F)C4)nc3c(F)c(-c4ccc(F)c5sc(N)c(C#N)c45)c(C(F)(F)F)cc23)[C@H]1C [Compound 260]
100 to 1000 nM: [6]; Homo sapiens, HPAC | [12]; Homo sapiens, HPAC, 72 h | [13]; Homo sapiens
≤ 100 nM: [1]; [16] | [2] | [4] | [5] | [7] | [8] | [9]; Homo sapiens | [10] | [11]; Homo sapiens, HCT-116
> 1000 nM: [3] | [14]

CCN(c1nc(OC[C@@]23CCCN2C[C@H](F)C3)nc2c(F)c(-c3ccc(F)c4sc(N)c(C#N)c34)c(Cl)cc12)[C@@H]1CCN(C(C)=O)[C@@H]1C [Compound 323]
≤ 100 nM: [1]; [16] | [2] | [5] | [6]; Homo sapiens, HPAC | [8] | [9]; Homo sapiens | [10] | [11]; Homo sapiens, HCT-116 | [12]; Homo sapiens, HPAC, 72 h | [13]; Homo sapiens
> 1000 nM: [3] | [14]

CCN(c1nc(OC[C@@]23CCCN2C[C@H](F)C3)nc2c(F)c(-c3ccc(F)c4sc(N)c(C#N)c34)c(Cl)cc12)[C@@H]1CCN(C(=O)C2CC2)[C@@H]1C [Compound 337]
≤ 100 nM: [1]; [16] | [5] | [6]; Homo sapiens, HPAC | [8] | [10] | [11]; Homo sapiens, HCT-116 | [13]; Homo sapiens
100 to 1000 nM: [2] | [9]; Homo sapiens | [12]; Homo sapiens, HPAC, 72 h
> 1000 nM: [3] | [14]

CN(Cc1cccnc1N)c1nc(OC[C@@]23CCCN2C[C@H](F)C3)nc2c(F)c(-c3ccc(F)c4sc(N)c(C#N)c34)c(C(F)(F)F)cc12 [Compound 390]
> 1000 nM: [3] | [14]
100 to 1000 nM: [12]; Homo sapiens, HPAC, 72 h
≤ 100 nM: [1]; [16] | [2] | [6]; Homo sapiens, HPAC | [15] | [9]; Homo sapiens | [13]; Homo sapiens

CC(=O)N1CC[C@@H](N(C)c2nc(OC[C@@]34CCCN3C[C@H](F)C4)nc3c(F)c(-c4ccc(F)c5sc(N)c(C#N)c45)c(Cl)cc23)[C@H]1C [Compound 398]
100 to 1000 nM: [6]; Homo sapiens, HPAC | [9]; Homo sapiens | [12]; Homo sapiens, HPAC, 72 h | [13]; Homo sapiens
≤ 100 nM: [1]; [16] | [2] | [5] | [8] | [10] | [11]; Homo sapiens, HCT-116
> 1000 nM: [3] | [14]

CCN(c1nc(OCC23CCCN2CC(F)C3)nc2c(F)c(-c3ccc(F)c4sc(N)c(C#N)c34)c(C(F)(F)F)cc12)C1CC(C)N(C(=O)C2CC2(F)F)C1 (stereo not shown) [Compound 732]
≤ 100 nM: [1]; H358 (KRAS G12C) cells | [4] | [6] | [7] | [9] | [11] | [12]; 72 hours | [13]
